# According to patent EP1561465A2, “Methods of use of fluoroquinolone compounds against bacteria” (LG Life Sciences, Ltd., priority 1999, dated 2001):
# Where two headings read alike, the source gives them in different places.
# Legend:
# Yersinia enterocolitica = test: MIC by agar dilution (NCCLS M7-A4), 288 enteropathogenic isolates, gemifloxacin and 15 other antimicrobials; type: cell-based
# Campylobacter jejuni [1] = details: Campylobacter jejuni N= 91
# Campylobacter jejuni [2] = test: MIC by agar dilution (NCCLS M7-A4), 288 enteropathogenic isolates, gemifloxacin and 15 other antimicrobials; details: for MIC: Campylobacter jejuni
# Shigella spp. = test: as above; type: cell-based; details: Shigella spp. N= 21
# Protocol: [A. hydrophila (12), and A. sobria (4)], and 91 Campylobacter jejuni. […] The strains were stored in skimmed-milk at -80 °C until studied.
# The plates were incubated aerobically at 35 °C for 24 h, except for Campylobacter jejuni, where a microaerophilic atmosphere was obtained by using Campy Pack (Becton Dickinson, Cockeysville, MD, USA), and incubation was for 48 h. All organisms were tested with an inoculum of ≅ 10^4 cfu/spot. MICs were defined as the lower antibiotic concentration with no visible growth.
# Aeromonas spp. = test: as above; type: cell-based; details: for MIC: Aeromonas
# Hafnia alvei = test: as above; type: cell-based; details: for MIC: Hafnia alvei
# Salmonella spp. = test: as above; type: cell-based; details: for MIC: Salmonella
# E. coli = test: microbe, parasite or virus in culture; type: cell-based; details: Escherichia coli
# Streptococcus pneumoniae [3] = test: MIC by NCCLS reference broth microdilution, 450 respiratory tract pathogens; type: cell-based; details: Streptococcus pneumoniae
# Klebsiella pneumoniae [4] = test: MIC by agar dilution (NCCLS), 322 nosocomial Gram negative isolates, Athens 1998; type: cell-based; details: n = 56 isolates
# Acinetobacter spp. = test: as above; type: cell-based; details: Acinetobacter; n = 38 strains
# Proteus mirabilis = test: as above; type: cell-based; details: Proteus mirabilis; n = 57 isolates
# Moraxella catarrhalis [5] = test: MIC by two-fold serial agar dilution, Sensitivity Disk agar-N (Kitasato isolates); type: cell-based; details: Moraxella catarrhalis (22)
# Haemophilus influenzae [6] = test: as above; type: cell-based; details: Haemophilus influenzae (24)
# Escherichia coli = test: MIC by agar dilution (NCCLS), 322 nosocomial Gram negative isolates, Athens 1998; type: cell-based; details: n = 57 isolates
# Streptococcus pyogenes = test: MIC by NCCLS reference broth microdilution, 450 respiratory tract pathogens; type: cell-based; details: Streptococcus pyogenes
# Enterobacter spp. = test: MIC by agar dilution (NCCLS), 322 nosocomial Gram negative isolates, Athens 1998; type: cell-based; details: Enterobacter; n = 57 isolates; read-out: MIC50
# P. aeruginosa = test: MIC by two-fold serial agar dilution, quinolone-resistant strains; type: cell-based; details: Pseudomonas aeruginosa
# Staphylococcus aureus = test: MIC by NCCLS reference broth microdilution, 450 respiratory tract pathogens; type: cell-based
# Pseudomonas aeruginosa = test: MIC by agar dilution (NCCLS), 322 nosocomial Gram negative isolates, Athens 1998; type: cell-based; details: n = 57 isolates
# Moraxella catarrhalis [7] = test: MIC by NCCLS reference broth microdilution, 450 respiratory tract pathogens; type: cell-based
# Klebsiella pneumoniae [8] = test: as above; type: cell-based
# Streptococcus pneumoniae [9] = test: MIC by two-fold serial agar dilution, Sensitivity Disk agar-N (Kitasato isolates); type: cell-based; details: Streptococcus pneumoniae; for MIC: 18 h, read-out: MIC Range
# Haemophilus influenzae [10] = test: MIC by NCCLS reference broth microdilution, 450 respiratory tract pathogens; type: cell-based; details: for MIC / MIC50: Haemophilus influenzae
# [11] = Streptococcus pyogenes (n = 100)
# [12] = erythromycin resistant I phenotype [MLSB] (n = 20)
# [13] = erythromycin resistant M phenotype (n = 20)
# [14] = Klebsiella pneumoniae, Klebsiella pneumoniae (n = 50)
# [15] = Haemophilus influenzae (n = 100)
smiles,measurement,setting,value
CO/N=C1\CN(c2nc3c(cc2F)c(=O)c(C(=O)O)cn3C2CC2)CC1CN (racemic) [Gemifloxacin (SB 265805)],% Susceptible,Yersinia enterocolitica; Yersinia enterocolitica N= 22,100%
same,MIC (mg/L) Range,Yersinia enterocolitica; Yersinia enterocolitica N= 22,≤0.015 to 0.12 mg/L
same,MIC,"Yersinia enterocolitica; Yersinia enterocolitica, read-out: MIC (mg/L) 50%",0.03 mg/L
same,MIC,"Yersinia enterocolitica; Yersinia enterocolitica, read-out: MIC (mg/L) 90%",0.03 mg/L
same,% Susceptible,Campylobacter jejuni [1],32%
same,MIC (mg/L) Range,Campylobacter jejuni [1],0.03 to 128 mg/L
same,MIC,Campylobacter jejuni [2]; read-out: MIC (mg/L) 50%,32 mg/L
same,MIC,Campylobacter jejuni [2]; read-out: MIC (mg/L) 90%,128 mg/L
same,% Susceptible,Shigella spp.,100%
same,MIC (mg/L) Range,Shigella spp.,≤0.015 mg/L
same,MIC,Shigella spp.; read-out: MIC (mg/L) 50%,≤ 0.015 mg/L
same,MIC,Shigella spp.; read-out: MIC (mg/L) 90%,≤ 0.015 mg/L
same,% Susceptible,Aeromonas spp.; Aeromonas spp. N= 16,100%
same,MIC,Aeromonas spp.; read-out: MIC (mg/L) 50%,≤ 0.015 mg/L
same,MIC,Aeromonas spp.; read-out: MIC (mg/L) 90%,0.03 mg/L
same,% Susceptible,Hafnia alvei; Hafnia alvei N= 32,100%
same,MIC,Hafnia alvei; read-out: MIC (mg/L) 50%,0.03 mg/L
same,MIC,Hafnia alvei; read-out: MIC (mg/L) 90%,0.03 mg/L
same,% Susceptible,Salmonella spp.; Salmonella spp. N= 106,100%
same,MIC (mg/L) Range,Salmonella spp.; Salmonella spp. N= 106,≤0.015 to 0.25 mg/L
same,MIC,"Salmonella spp.; read-out: MIC (mg/L) 50%, Salmonella spp. N= 106",0.03 mg/L
same,MIC,"Salmonella spp.; read-out: MIC (mg/L) 90%, Salmonella spp. N= 106",0.12 mg/L
"O=C(O)c1cn(C2CC2)c2cc(N3CCNCC3)c(F)cc2c1=O [Ciprofloxacin, ciprofloxacin]",MIC,"E. coli; E. coli KU1030, mutant type SP",0.063 µg/mL
same,MIC,"E. coli; E. coli KU1036, mutant type GB (DNA gyrase B)",0.063 µg/mL
same,MIC,"E. coli; E. coli KU1038, mutant type SP",0.063 µg/mL
same,MIC,"E. coli; E. coli KU1042, mutant type SP",0.063 µg/mL
same,MIC,Streptococcus pneumoniae [3]; Streptococcus pneumoniae (n = 100),0.06 to 4 µg/mL
same,MIC,Streptococcus pneumoniae [3]; multi-drug resistant (n = 16),0.5 to 4 µg/mL
same,MIC,Streptococcus pneumoniae [3]; penicillin intermediate (n = 16),0.5 to 2 µg/mL
same,MIC,Streptococcus pneumoniae [3]; penicillin resistant (n = 18),0.5 to 8 µg/mL
same,MIC50,Streptococcus pneumoniae [3]; penicillin resistant (n = 18),0.5 µg/mL
same,MIC90,Streptococcus pneumoniae [3]; penicillin resistant (n = 18),8 µg/mL
same,MIC,Streptococcus pneumoniae [3]; penicillin susceptible (n = 20),0.06 to 2 µg/mL
same,MIC50,Klebsiella pneumoniae [4]; Klebsiella pneumoniae,≤ 0.03 µg/mL
same,MIC90,Klebsiella pneumoniae [4]; Klebsiella pneumoniae,0.5 µg/mL
same,MIC Range,Klebsiella pneumoniae [4],≤0.03 to 8 µg/mL
same,MIC,"Yersinia enterocolitica; 24 h, Yersinia enterocolitica N= 22, read-out: MIC (mg/L) Range",0.015 to 0.25 mg/L
same,MIC90,Acinetobacter spp.,> 64 µg/mL
same,MIC (mg/L) Range,Campylobacter jejuni [2]; Campylobacter jejuni N= 91,0.06 to 128 mg/L
same,MIC50,Proteus mirabilis,0.06 µg/mL
same,MIC50,Moraxella catarrhalis [5],0.031 µg/mL
same,MIC Range,Moraxella catarrhalis [5],0.031 to 0.063 µg/mL
same,MIC (mg/L) Range,Aeromonas spp.; Aeromonas spp. N= 16,≤0.015 to 0.06 mg/L
same,MIC Range,Haemophilus influenzae [6],0.008 to 0.031 µg/mL
same,MIC50,Escherichia coli; Escherichia coli,≤ 0.03 µg/mL
same,MIC Range,Escherichia coli,≤0.03 to 64 µg/mL
same,MIC,Streptococcus pyogenes; [11],0.12 to 2 µg/mL
same,MIC90,Streptococcus pyogenes; [11],0.5 µg/mL
same,MIC,Streptococcus pyogenes; erythromycin resistant C phenotype [MLSB] (n = 20),0.25 to 0.5 µg/mL
same,MIC,Streptococcus pyogenes; [12],0.12 to 2 µg/mL
same,MIC90,Streptococcus pyogenes; [12],0.5 µg/mL
same,MIC,Streptococcus pyogenes; [13],0.12 to 0.5 µg/mL
same,MIC90,Streptococcus pyogenes; [13],0.5 µg/mL
same,MIC,Streptococcus pyogenes; fully susceptible (n = 20),0.12 to 2 µg/mL
same,MIC90,Streptococcus pyogenes; fully susceptible (n = 20),0.5 µg/mL
same,MIC,Streptococcus pyogenes; multi-drug resistant (n = 20),0.25 to 1 µg/mL
same,MIC90,Streptococcus pyogenes; multi-drug resistant (n = 20),0.5 µg/mL
same,MIC50,Enterobacter spp.,≤ 0.03 µg/mL
same,MIC,P. aeruginosa,1 µg/mL
same,MIC,Staphylococcus aureus; Staphylococcus aureus (n = 50),0.06 to 4 µg/mL
same,MIC50,Staphylococcus aureus; Staphylococcus aureus (n = 50),2 µg/mL
same,MIC,Staphylococcus aureus; β-lactamase negative (n = 20),0.06 to 4 µg/mL
same,MIC50,Staphylococcus aureus; β-lactamase negative (n = 20),2 µg/mL
same,MIC50,Pseudomonas aeruginosa,0.5 µg/mL
same,MIC (mg/L) Range,Salmonella spp.; Salmonella spp. N= 106,≤0.015 to 1 mg/L
same,MIC,Moraxella catarrhalis [7]; Moraxella catarrhalis (n = 50),0.00375 to 0.06 µg/mL
same,MIC50,Moraxella catarrhalis [7]; Moraxella catarrhalis (n = 50),0.03 µg/mL
same,MIC,Moraxella catarrhalis [7]; β-lactamase negative (n = 13),0.00375 to 0.03 µg/mL
same,MIC50,Moraxella catarrhalis [7]; β-lactamase negative (n = 13),0.015 µg/mL
same,MIC,Moraxella catarrhalis [7]; β-lactamase positive (n = 37),0.00375 to 0.06 µg/mL
same,MIC50,Moraxella catarrhalis [7]; β-lactamase positive (n = 37),0.03 µg/mL
same,MIC Range,Klebsiella pneumoniae [8]; Klebsiella pneumoniae (n = 50),≤0.0075 to 1 µg/mL
same,MIC50,Klebsiella pneumoniae [8]; [14],0.12 µg/mL
same,MIC90,Klebsiella pneumoniae [8]; [14],0.5 µg/mL
same,MIC90,"Klebsiella pneumoniae [8]; Klebsiella pneumoniae, extended spectrum β-lactamase negative (n = 30)",0.03 µg/mL
same,MIC90,"Klebsiella pneumoniae [8]; Klebsiella pneumoniae, extended spectrum β-lactamase positive (n = 20)",0.5 µg/mL
same,MIC Range,Klebsiella pneumoniae [8]; extended spectrum β-lactamase negative (n = 30),≤0.0075 to 0.12 µg/mL
same,MIC Range,Klebsiella pneumoniae [8]; extended spectrum β-lactamase positive (n = 20),0.015 to 0.5 µg/mL
same,MIC,Streptococcus pneumoniae [9]; Ciprofloxacin-resistant (21),8 to 128 µg/mL
same,MIC,Streptococcus pneumoniae [9]; Ciprofloxacin-susceptible (94),0.25 to 4 µg/mL
same,MIC,Streptococcus pneumoniae [9]; Erythromycin-resistant (37),0.5 to 64 µg/mL
same,MIC,Streptococcus pneumoniae [9]; Minocycline-resistant (37),0.25 to 64 µg/mL
same,MIC,Streptococcus pneumoniae [9]; Penicillin-resistant (19),0.5 to 8 µg/mL
same,MIC50,"Streptococcus pneumoniae [9]; Penicillin-resistant (19), read-out: MIC50",0.5 µg/mL
same,MIC90,Haemophilus influenzae [10]; [15],0.015 µg/mL
same,MIC,Haemophilus influenzae [10]; [15],0.0075 to 0.5 µg/mL
same,MIC50,Haemophilus influenzae [10]; [15],≤ 0.00075 µg/mL
same,MIC,Haemophilus influenzae [10]; β-lactamase negative (n = 80),0.0075 to 0.5 µg/mL
same,MIC50,Haemophilus influenzae [10]; β-lactamase negative (n = 80),≤ 0.0075 µg/mL
same,MIC,Haemophilus influenzae [10]; β-lactamase positive (n = 20),0.0075 to 0.015 µg/mL
same,MIC50,Haemophilus influenzae [10]; β-lactamase positive (n = 20),≤ 0.0075 µg/mL
